The values below come from patent US11970452B2, “Modulators of mas-related G-protein receptor X2 and related products and methods” (Escient Pharmaceuticals, Inc., priority 2020, dated 2024).

SMILES strings stand for the structures. Bounds are passed on as bounds.

The assay concerns the target T1, human MRGPRX2 (Homo sapiens, UniProt Q96LB1).
T1 construct: expressed in transfected cells
T1 sequence (Q96LB1 1-330): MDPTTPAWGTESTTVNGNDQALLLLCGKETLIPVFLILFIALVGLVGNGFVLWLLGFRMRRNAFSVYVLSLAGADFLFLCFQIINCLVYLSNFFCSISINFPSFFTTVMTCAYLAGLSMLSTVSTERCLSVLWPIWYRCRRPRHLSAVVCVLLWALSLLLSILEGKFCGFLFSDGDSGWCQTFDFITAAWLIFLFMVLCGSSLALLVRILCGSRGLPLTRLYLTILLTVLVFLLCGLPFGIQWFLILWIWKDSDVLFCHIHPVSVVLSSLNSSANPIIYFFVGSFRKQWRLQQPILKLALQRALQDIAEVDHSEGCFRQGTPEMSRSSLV
In words: MRGPRX2 activity: IP-One HTRF antagonist assay versus 0.3 uM Cortistatin 14. The format is cell-based. The conditions noted are these: CHO cells expressing human MRGPRX2; IP-1 HTRF; versus 0.3 uM Cortistatin 14 agonist; read-out: MRGPR2 Antagonist Activity. As for the experimental part:
CHO cells stably transfected to express human MRGPRX2 were maintained in an incubator at 37° C. with 5% CO2 and grown in F12 (HAM) media with 10% fetal bovine serum (FBS), 1% Glutamax, 1% penicillin/streptomycin, 800 μg/mL Geneticin (G418), and 300 μg/mL Hygromycin B.
Cells were plated in a […] assay plate at 20,000 cells per well in 12 μL of Opti-MEM and kept in an incubator overnight. On the day of the assay, compounds solubilized at 10 mM in DMSO were added as a 10-point curve (30 uM final top concentration with 1:3 serial dilutions) using a Tecan D300E digital dispenser. Agonists were diluted in assay buffer (final concentrations of 5.7 mM Tris-HCl, 43 mM NaCl, 50 mM LiCl, pH=8) and 2 μL of the agonist Cortistatin 14 (CPC Scientific, catalog CORT-002) are added to each well. Final concentrations of agonists were 0.3 μM Cortistatin. Final concentrations of DMSO were kept consistent across the plate. Plates were incubated in the dark for 1 h at 37° C. and then for 1 h at room temperature. IP-1 standards and HTRF detection reagents were added according to the IP-One-Gq Kit purchased from Cisbio (part number 62IPAPEJ) and incubated in the dark for 1 h at room temperature. The plate was read on a Molecular Devices SpectraMax iD5 plate reader. The HTRF ratio was calculated from the raw data and graphed using GraphPad Prism to calculate an IC50 value for each compound.
The activity ranges are denoted as follows: “+++++” denotes antagonist activity <100 nM; “++++” denotes antagonist activity between 100 and 500 nM; “+++” denotes activity between 501 and 1000 nM; “++” denotes activity between 1001 and 2500 nM; and “+” denotes activity >2500 nM
(Time-resolved FRET reads energy transfer from a long-lived donor to a nearby acceptor.)
On to `CC(C)Cc1cc(C(=O)N[C@H]2CC[C@@H](Nc3cc(C(F)(F)F)nc4ccc(Cl)cc34)CC2)n(C)n1` [4-129], for which the IC50 fell in the range of 1000 to 2500 nM.

`COc1ccc(C(=O)N[C@H]2CC[C@@H](Nc3cc(C(F)(F)F)nc4ccc(Cl)cc34)CC2)c(C)n1` [4-6]: the IC50 fell in the range of 501 to 1000 nM.

In the case of `O=C(N[C@H]1CC[C@@H](Nc2cc(C(F)(F)F)nc3ccccc23)CC1)c1ccccn1` [3-21], the IC50 was 501 to 1000 nM. The same measure for `O=C(N[C@H]1CC[C@@H](Nc2cc(C(F)(F)F)nc3ccc(Cl)cc23)CC1)C1CCN(C(=O)c2ccccc2Cl)CC1` [4-122]: greater than 2500 nM; for `O=C(N[C@H]1CC[C@@H](Nc2cc(C(F)(F)F)nc3ccc(Cl)cc23)CC1)c1ccc2oc(=O)ccc2c1` [4-145]: 100 to 500 nM; for `O=C1Nc2c(C(=O)N[C@H]3CC[C@@H](Nc4cc(C(F)(F)F)nc5ccc(Cl)cc45)CC3)cccc2C1=O` [4-164]: 100 to 500 nM.

For `CNc1cccc(C(=O)N[C@H]2CC[C@@H](Nc3cc(C(F)(F)F)nc4ccc(Cl)cc34)CC2)c1` [4-8], the IC50 fell in the range of 100 to 500 nM. Then `CCC(C(=O)N[C@H]1CC[C@@H](Nc2cc(C(F)(F)F)nc3ccccc23)CC1)c1ccccc1` (some centres unmarked) [3-24], with 1000 to 2500 nM; and `O=C(N[C@H]1CC[C@@H](Nc2cc(C(F)(F)F)nc3ccc(Cl)cc23)CC1)c1cccn1-c1ccccc1` [4-162], with 1000 to 2500 nM; and `O=C(N[C@H]1CC[C@@H](Nc2cc(C(F)(F)F)nc3ccccc23)CC1)c1ccc(Cl)s1` [4-241], with 501 to 1000 nM. Then `O=C1CCc2ccc(C(=O)N[C@H]3CC[C@@H](Nc4cc(C(F)(F)F)nc5ccc(Cl)cc45)CC3)cc2N1` [4-283], with 100 to 500 nM; and `O=C(CCOc1cccc(F)c1)N[C@H]1CC[C@@H](Nc2cc(C(F)(F)F)nc3ccc(Cl)cc23)CC1` [4-134], with greater than 2500 nM; and `O=C(N[C@H]1CC[C@@H](Nc2cc(C(F)F)nc3ccc(Cl)cc23)CC1)c1ccc(F)cc1` [1-3, 4-fluoro-N-[(1s,4s)-4-{[6-chloro-2-(difluoromethyl)quinolin-4-yl]amino}cyclohexyl]benzamide], with 100 to 500 nM. Regarding `O=C(N[C@H]1CC[C@@H](Nc2cc(C(F)(F)F)nc3ccccc23)CC1)c1ccnc2ccccc12` [4-230], the IC50 lay in the range of 1000 to 2500 nM. The same measure for `O=C(N[C@H]1CC[C@@H](Nc2cc(C(F)(F)F)nc3ccc(Cl)cc23)CC1)c1csnn1` [4-107]: 501 to 1000 nM. `O=C(N[C@H]1CC[C@@H](Nc2cc(C(F)(F)F)nc3ccccc23)CC1)[C@H]1C[C@@H]1c1ccccc1` [4-291]: the IC50 was 1000 to 2500 nM. The same measure for `O=C(N[C@H]1CC[C@@H](Nc2cc(C(F)(F)F)nc3ccccc23)CC1)c1ccc2ncccc2n1` [4-265]: 1000 to 2500 nM; for `Cn1cc(I)c(C(=O)N[C@H]2CC[C@@H](Nc3cc(C(F)(F)F)nc4ccc(Cl)cc34)CC2)n1` [4-90]: 501 to 1000 nM; for `CCCS(=O)(=O)Nc1ccc(F)c(C(=O)N[C@H]2CC[C@@H](Nc3cc(C(F)(F)F)nc4ccc(Cl)cc34)CC2)c1F` [4-173]: 100 to 500 nM.

Regarding `N#Cc1csc(C(=O)N[C@H]2CC[C@@H](Nc3cc(C(F)(F)F)nc4ccccc34)CC2)c1` [4-243], the IC50 was in the range of 501 to 1000 nM. Then `CCCc1nnsc1C(=O)N[C@H]1CC[C@@H](Nc2cc(C(F)(F)F)nc3ccc(Cl)cc23)CC1` [4-209], with 1000 to 2500 nM; and `CN(C)c1ccc(C(=O)N[C@H]2CC[C@@H](Nc3cc(C(F)(F)F)nc4ccc(Cl)cc34)CC2)cc1` [4-102], with 100 to 500 nM; and `CN(C)C(=O)Nc1cccc(C(=O)N[C@H]2CC[C@@H](Nc3cc(C(F)(F)F)nc4ccc(Cl)cc34)CC2)c1` [4-281], with 100 to 500 nM. In the case of `COc1ccc(C(=O)N[C@H]2CC[C@@H](Nc3cc(C(F)(F)F)nc4ccccc34)CC2)cc1F` [3-27], the IC50 fell in the range of 501 to 1000 nM. The same measure for `O=C(N[C@H]1CC[C@@H](Nc2cc(C(F)(F)F)nc3ccccc23)CC1)c1ccccc1Cl` [3-12]: 100 to 500 nM. The same measure for `CC(C)C(=O)Nc1cccc(C(=O)N[C@H]2CC[C@@H](Nc3cc(C(F)(F)F)nc4ccc(Cl)cc34)CC2)c1` [4-279]: 100 to 500 nM.
